Values quoted from earlier work as cited in article PMC2970513 (Chemical biology & drug design, 2009).

System: μ receptor
Details: compared with the N-methylated cyclic peptides of this paper

H-Tyr-D-Ala(NMe)-Phe-Sar-NH2
μ receptor binding affinity, fold lower than those of the N-methylated cyclic peptides described here: 30-80 fold
